According to patent US10538487B2, “Sulfonylureas and related compounds and use of same” (priority 2015, dated 2020):
Where two headings read alike, the source gives them in different places.

Assay: Single dose pharmacokinetic study in mice (iv 4 mg/Kg, po 20 mg/Kg), plasma concentration post-dosing
Type: in vivo, mouse
Details: male, C57BL/6, mouse, plasma, mouse; for concentration at 5 min: 5 min post dosing; for concentration at 0.25 h: 0.250 h post dosing; for concentration at 0.5 h: 0.500 h post dosing; for concentration at 1 h: 1.00 h post dosing; for concentration at 2 h: 2.00 h post dosing; for concentration at 4 h: 4.00 h post dosing; for concentration at 8 h: 8.00 h post dosing; for concentration at 24 h: 24.0 h post dosing
Method: This is advantageous leading to comparatively lower doses or less frequent administration. The procedure followed was: Male C57BL/6 mice were used at 7-9 weeks age with 3 animals per group. Mice were dosed with test compound using single intravenous bolus or oral gavage. Blood samples were taken via submandibular or saphenous vein for analysis of plasma concentrations of compound by LC-MS/MS at the following timepoints: IV (3 mice): 0.083, 0.25, 0.5, 1, 2, 4, 8 and 24 hours post dosing, PO (3 mice): 0.25, 0.5, 1, 2, 4, 8 and 24 hours post dosing. LC-MS/MS method for the quantitative determination of test compound in corresponding biological matrix was developed. […] The results are shown graphically in FIGS. 1A to 1C (MCC950) and FIGS. 2A to 2C (MCC7840).

CC(C)(O)c1coc(S(=O)(=O)NC(=O)Nc2c3c(cc4c2CCC4)CCC3)c1 [MCC_000950_016, N-((1,2,3,5,6,7-hexahydro-s-indacen-4-yl)carbamoyl)-4-(2-hydroxypropan-2-yl)furan-2-sulfonamide, reference compound]
concentration at 5 min (iv, 4 mg/kg, IV 4 mg/Kg, individual mice M1-M3, read-out: Plasma concentration, IV Time 0.0833 h): 20200 ng/mL | concentration at 5 min (iv, 4 mg/kg, IV 4 mg/Kg, mean of 3 mice, read-out: Plasma concentration, IV Time 0.0833 h, Mean IV): 18400 ng/mL | concentration at 0.25 h (iv, 4 mg/kg, IV 4 mg/Kg, individual mice M1-M3, read-out: Plasma concentration, IV Time 0.250 h): 16000 ng/mL | concentration at 0.25 h (iv, 4 mg/kg, IV 4 mg/Kg, mean of 3 mice, read-out: Plasma concentration, IV Time 0.250 h, Mean IV): 13000 ng/mL | concentration at 0.5 h (iv, 4 mg/kg, IV 4 mg/Kg, individual mice M1-M3, read-out: Plasma concentration, IV Time 0.500 h): 11700 ng/mL | concentration at 0.5 h (iv, 4 mg/kg, IV 4 mg/Kg, mean of 3 mice, read-out: Plasma concentration, IV Time 0.500 h, Mean IV): 10500 ng/mL | concentration at 1 h (iv, 4 mg/kg, IV 4 mg/Kg, individual mice M1-M3, read-out: Plasma concentration, IV Time 1.00 h): 9340 ng/mL | concentration at 1 h (iv, 4 mg/kg, IV 4 mg/Kg, mean of 3 mice, read-out: Plasma concentration, IV Time 1.00 h, Mean IV): 8430 ng/mL | concentration at 2 h (iv, 4 mg/kg, IV 4 mg/Kg, individual mice M1-M3, read-out: Plasma concentration, IV Time 2.00 h): 7410 ng/mL | concentration at 2 h (iv, 4 mg/kg, IV 4 mg/Kg, mean of 3 mice, read-out: Plasma concentration, IV Time 2.00 h, Mean IV): 6140 ng/mL | concentration at 4 h (iv, 4 mg/kg, IV 4 mg/Kg, individual mice M1-M3, read-out: Plasma concentration, IV Time 4.00 h): 3280 ng/mL | concentration at 4 h (iv, 4 mg/kg, IV 4 mg/Kg, mean of 3 mice, read-out: Plasma concentration, IV Time 4.00 h, Mean IV): 2600 ng/mL | concentration at 8 h (iv, 4 mg/kg, IV 4 mg/Kg, individual mice M1-M3, read-out: Plasma concentration, IV Time 8.00 h): 905 ng/mL | concentration at 8 h (iv, 4 mg/kg, IV 4 mg/Kg, mean of 3 mice, read-out: Plasma concentration, IV Time 8.00 h, Mean IV): 743 ng/mL | concentration at 24 h (iv, 4 mg/kg, IV 4 mg/Kg, individual mice M1-M3, read-out: Plasma concentration, IV Time 24.0 h): 3.29 ng/mL | concentration at 24 h (iv, 4 mg/kg, IV 4 mg/Kg, mean of 3 mice, read-out: Plasma concentration, IV Time 24.0 h, Mean IV): 2.65 ng/mL | AUC0-inf (iv, 4 mg/kg, IV 4 mg/Kg, individual mice M1-M3, read-out: AUC0-inf): 41900 ng·h/mL | AUC(0-t) (iv, 4 mg/kg, IV 4 mg/Kg, individual mice M1-M3, read-out: AUC0-last): 41900 ng·h/mL | C0 (iv, 4 mg/kg, IV 4 mg/Kg, individual mice M1-M3, read-out: C0): 22700 ng/mL | clearance (iv, 4 mg/kg, IV 4 mg/Kg, individual mice M1-M3, read-out: Cl): 1.59 mL/min/kg | MRT inf (iv, 4 mg/kg, IV 4 mg/Kg, individual mice M1-M3, read-out: MRT0-inf): 2.78 h | MRT last (iv, 4 mg/kg, IV 4 mg/Kg, individual mice M1-M3, read-out: MRT0-last): 2.77 h | half-life (iv, 4 mg/kg, IV 4 mg/Kg, individual mice M1-M3, read-out: T1/2 (converted)): 120 min | Vd (iv, 4 mg/kg, IV 4 mg/Kg, individual mice M1-M3, read-out: Vdss): 0.265 L/kg | AUC0-inf (iv, 4 mg/kg, IV 4 mg/Kg, mean of 3 mice, read-out: AUC0-inf, Mean IV): 35400 ng·h/mL | AUC(0-t) (iv, 4 mg/kg, IV 4 mg/Kg, mean of 3 mice, read-out: AUC0-last, Mean IV): 35400 ng·h/mL | clearance (iv, 4 mg/kg, IV 4 mg/Kg, mean of 3 mice, read-out: Cl, Mean IV): 1.92 mL/min/kg | MRT inf (iv, 4 mg/kg, IV 4 mg/Kg, mean of 3 mice, read-out: MRT0-inf, Mean IV): 2.67 h | MRT last (iv, 4 mg/kg, IV 4 mg/Kg, mean of 3 mice, read-out: MRT0-last, Mean IV): 2.67 h | half-life (iv, 4 mg/kg, IV 4 mg/Kg, mean of 3 mice, read-out: T1/2, Mean IV (converted)): 120 min | Vd (iv, 4 mg/kg, IV 4 mg/Kg, mean of 3 mice, read-out: Vdss, Mean IV): 0.306 L/kg | concentration at 0.25 h (po, 20 mg/kg, PO 20 mg/Kg, mean of 3 mice, read-out: Plasma concentration, PO Time 0.250 h, Mean PO): 33300 ng/mL | concentration at 0.5 h (po, 20 mg/kg, PO 20 mg/Kg, individual mice M4-M6, read-out: Plasma concentration, PO Time 0.500 h): 20400 ng/mL | concentration at 0.5 h (po, 20 mg/kg, PO 20 mg/Kg, mean of 3 mice, read-out: Plasma concentration, PO Time 0.500 h, Mean PO): 30100 ng/mL | concentration at 1 h (po, 20 mg/kg, PO 20 mg/Kg, individual mice M4-M6, read-out: Plasma concentration, PO Time 1.00 h): 19300 ng/mL | concentration at 1 h (po, 20 mg/kg, PO 20 mg/Kg, mean of 3 mice, read-out: Plasma concentration, PO Time 1.00 h, Mean PO): 30000 ng/mL | concentration at 2 h (po, 20 mg/kg, PO 20 mg/Kg, individual mice M4-M6, read-out: Plasma concentration, PO Time 2.00 h): 18500 ng/mL | concentration at 2 h (po, 20 mg/kg, PO 20 mg/Kg, mean of 3 mice, read-out: Plasma concentration, PO Time 2.00 h, Mean PO): 22400 ng/mL | concentration at 4 h (po, 20 mg/kg, PO 20 mg/Kg, individual mice M4-M6, read-out: Plasma concentration, PO Time 4.00 h): 10200 ng/mL | concentration at 4 h (po, 20 mg/kg, PO 20 mg/Kg, mean of 3 mice, read-out: Plasma concentration, PO Time 4.00 h, Mean PO): 11200 ng/mL | concentration at 8 h (po, 20 mg/kg, PO 20 mg/Kg, individual mice M4-M6, read-out: Plasma concentration, PO Time 8.00 h): 4330 ng/mL | concentration at 8 h (po, 20 mg/kg, PO 20 mg/Kg, mean of 3 mice, read-out: Plasma concentration, PO Time 8.00 h, Mean PO): 3790 ng/mL | concentration at 24 h (po, 20 mg/kg, PO 20 mg/Kg, mean of 3 mice, read-out: Plasma concentration, PO Time 24.0 h, Mean PO): 39.1 ng/mL | AUC0-inf (po, 20 mg/kg, PO 20 mg/Kg, individual mice M4-M6, read-out: AUC0-inf): 108000 ng·h/mL | AUC(0-t) (po, 20 mg/kg, PO 20 mg/Kg, individual mice M4-M6, read-out: AUC0-last): 108000 ng·h/mL | MRT inf (po, 20 mg/kg, PO 20 mg/Kg, individual mice M4-M6, read-out: MRT0-inf): 4.31 h | MRT last (po, 20 mg/kg, PO 20 mg/Kg, individual mice M4-M6, read-out: MRT0-last): 4.26 h | half-life (po, 20 mg/kg, PO 20 mg/Kg, individual mice M4-M6, read-out: T1/2 (converted)): 160 min | Tmax (po, 20 mg/kg, PO 20 mg/Kg, individual mice M4-M6, read-out: Tmax): 15 min
